# Counter-ions that a name gives are not always drawn.
# Target: T1, Lp-PLA2 from plasma (Homo sapiens, UniProt Q13093)
# T1 construct: from tissue; host or cells: pooled human plasma
# T1 sequence (Q13093 22-441): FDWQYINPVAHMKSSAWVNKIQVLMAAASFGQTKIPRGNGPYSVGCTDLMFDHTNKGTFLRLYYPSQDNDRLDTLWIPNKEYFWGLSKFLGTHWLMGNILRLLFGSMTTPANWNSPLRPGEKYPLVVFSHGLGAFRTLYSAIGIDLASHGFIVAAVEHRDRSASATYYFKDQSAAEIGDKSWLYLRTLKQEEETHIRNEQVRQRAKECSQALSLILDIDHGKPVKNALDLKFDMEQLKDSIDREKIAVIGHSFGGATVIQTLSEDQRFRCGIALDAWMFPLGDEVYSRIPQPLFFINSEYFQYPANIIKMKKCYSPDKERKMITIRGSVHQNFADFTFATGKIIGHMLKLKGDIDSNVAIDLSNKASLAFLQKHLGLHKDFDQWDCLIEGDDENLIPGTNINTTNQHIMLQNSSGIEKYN
# Test: Lp-PLA2 human plasma assay (Thio-PAF assay)
# Assay type: biochemical
# Details: pooled human plasma; read-out: pIC50 values in the thio-PAF assay (converted)
# Source text: (3) Lipoprotein-Associated Phospholipase A2 (Lp-PLA2) Human Plasma Assay (Also Referred to as “Thio-PAF Assay”)
# The human plasma assay utilizes a thioester analog of PAF (phosphatidylcholine), where hydrolysis yields to the formation of a phospholipid containing a free thiol group. The amount of thiol is quantitated continuously by reacting with CPM (7-diethylamino-3-(4′-maleimidylphenyl)-4-methylcoumarin), a maleimide which increases in fluoresence after Michael addition of thiols. This assay may detect the activity of Lp-PLA2 from plasma, as determined by specific inhibition by Lp-PLA2 inhibitors.
# The thio-PAF assay was run as a quenched 15 μL assay. Compounds source plate was prepared by making 1:3 (by volume) serial dilution of the compounds into pure DMSO on 384-well microplate. 0.01 μL of compounds on compound source plate were transferred to 384 well Greiner 784076 (black) low-volume plates by ECHO liquid dispenser. 8 μL pooled human plasma, which was previously aliquoted and frozen, was added. Plates were centrifuged for 10 sec at 500 rpm. After 30 minutes preincubation, 2 μL of substrate (2.5 mM thio-PAF, 3.2 mM NEM (N-ethylmaleimide) [made fresh daily in DMSO], and 32 μM CPM [from a DMSO stock] in assay buffer of 50 mM HEPES, pH7.4, 150 mM NaCl, 1 mM CHAPS was added to 384 well Greiner 784076 (black) low-volume plates by BRAVO liquid handling station. Plates were centrifuged for 10 sec at 500 rpm. Plate was covered to protect from light and incubated for 2 min at room temperature. Reaction was quenched with 5 μL of 5% aqueous trifluoroacetic acid (TFA). Plates were covered to protect from light and incubated for 40 min at room temperature. Plates were read at ex: 380/em: 485 using-Envision microplate reader. PIC50 data, curve and QC analysis was conducted by using XLFit module in Excel.
row,IC50,SMILES
1,≤ 0.1 µM,"Cn1cc(Cn2cc(F)c(OCCc3ccc(Oc4ccc(Cl)c(C(F)(F)F)c4)cc3)nc2=O)cn1 [Example 29, 4-{[2-(4-{[4-Chloro-3-(trifluoromethyl)phenyl]oxy}phenyl)ethyl]oxy}-5-fluoro-1-[(1-methyl-1H-pyrazol-4-yl)methyl]-2(1H)-pyrimidinone]"
2,≤ 0.1 µM,"N#Cc1cc(CCOc2ccn(Cc3cccnc3)c(=O)n2)ccc1Oc1ccc(Cl)c(C(F)(F)F)c1 [Example 7, 2-{[4-Chloro-3-(trifluoromethyl)phenyl]oxy}-5-(2-{[2-oxo-1-(3-pyridinylmethyl)-1,2-dihydro-4-pyrimidinyl]oxy}ethyl)benzonitrile trifluoroacetate]"
3,≤ 0.1 µM,"N#Cc1cc(COc2ccn(Cc3ccncc3)c(=O)n2)ccc1Oc1ccc(Cl)c(C(F)(F)F)c1 [Example 2, 2-{[4-Chloro-3-(trifluoromethyl)phenyl]oxy}-5-({[2-oxo-1-(4-pyridinylmethyl)-1,2-dihydro-4-pyrimidinyl]oxy}methyl)benzonitrile trifluoroacetate]"
4,≤ 0.1 µM,"Cn1cc(Cn2cc(F)c(OCCc3ccc(Oc4ccc(Cl)c(C(F)(F)F)c4)nc3)nc2=O)cn1 [Example 40, 4-(2-(6-(4-chloro-3-(trifluoromethyl)phenoxy)pyridin-3-yl)ethoxy)-5-fluoro-1-((1-methyl-1H-pyrazol-4-yl)methyl)pyrimidin-2(1H)-one]"
5,≤ 0.1 µM,"N#Cc1cc(CNc2ccn(Cc3cccnc3)c(=O)n2)ccc1Oc1ccc(Cl)c(C(F)(F)F)c1 [Example 19, 2-{[4-Chloro-3-(trifluoromethyl)phenyl]oxy}-5-({[2-oxo-1-(3-pyridinylmethyl)-1,2-dihydro-4-pyrimidinyl]amino}methyl)benzonitrile]"
6,≤ 0.1 µM,"COc1ncc(Cn2cc(F)c(OCCc3cnc(Oc4ccc(F)c(C(F)(F)F)c4)c(F)c3)nc2=O)cn1 [Example 43, 5-fluoro-4-(2-(5-fluoro-6-(4-fluoro-3-(trifluoromethyl)phenoxy)pyridin-3-yl)ethoxy)-1-((2-methoxypyrimidin-5-yl)methyl)pyrimidin-2(1H)-one]"
7,≤ 0.1 µM,"COc1ncc(Cn2cc(F)c(OCCc3ccc(Oc4ccc(Cl)c(C(F)(F)F)c4)cc3)nc2=O)cn1 [Example 36, 4-(4-(4-chloro-3-(trifluoromethyl)phenoxy)phenethoxy)-5-fluoro-1-((2-methoxypyrimidin-5-yl)methyl)pyrimidin-2(1H)-one]"
8,≤ 0.1 µM,"COc1ncc(Cn2cc(Cl)c(OCc3ccc(Oc4ccc(F)c(F)c4)c(F)c3)nc2=O)cn1 [Example 54, 5-chloro-4-((4-(3,4-difluorophenoxy)-3-fluorobenzyl)oxy)-1-((2-methoxypyrimidin-5-yl)methyl)pyrimidin-2(1H)-one]"
9,> 10 µM,"N#Cc1cc(COc2cc[nH]c(=O)n2)ccc1Oc1ccc(Cl)c(C(F)(F)F)c1 [Example 3, 2-(4-Chloro-3-(trifluoromethyl)phenoxy)-5-(((2-oxo-2,3-dihydropyrimidin-4-yl)oxy)methyl)benzonitrile]"
10,≤ 0.1 µM,"Cn1cc(Cn2cc(Cl)c(OCCc3cnc(Oc4ccc(F)c(C(F)(F)F)c4)c(F)c3)nc2=O)cn1 [Example 38, 5-chloro-4-(2-(5-fluoro-6-(4-fluoro-3-(trifluoromethyl)phenoxy)pyridin-3-yl)ethoxy)-1-((1-methyl-1H-pyrazol-4-yl)methyl)pyrimidin-2(1H)-one]"
11,≤ 1 µM,"COc1ncc(Cn2cc(F)c(OCCc3ccc(Oc4cccc(C(F)(F)F)n4)cc3)nc2=O)cn1 [Example 65, 5-fluoro-1-((2-methoxypyrimidin-5-yl)methyl)-4-(4-((6-(trifluoromethyl)pyridin-2-yl)oxy)phenethoxy)pyrimidin-2(1H)-one]"
12,≤ 0.1 µM,"Cn1cc(Cn2cc(F)c(OCCc3cnc(Oc4ccc(F)c(C(F)(F)F)c4)c(F)c3)nc2=O)cn1 [Example 42, 5-fluoro-4-(2-(5-fluoro-6-(4-fluoro-3-(trifluoromethyl)phenoxy)pyridin-3-yl)ethoxy)-1-((1-methyl-1H-pyrazol-4-yl)methyl)pyrimidin-2(1H)-one]"

# Source: patent US8859573B2, “Pyrimidinone and pyridinone compounds for use in the treatment of diseases or conditions mediated by Lp-PLA2” (Glaxo Group Limited, priority 2010, dated 2014)
